Drawing on US20250205350A1, “Antibody-Drug Conjugates and Uses Thereof” (Vivasor, Inc., priority 2022, published 2025), this text covers EC50 for 17 molecules.

For experiment [1], the system named is SkBr-3 (Her2+). Briefly: In vitro cell viability (CellTiter-Glo) of camptothecin derivatives in SkBr-3. The settings on record: 120-hour assay. It is filed as cell-based, human. The method, then: (§1) The in vitro efficacies of camptothecin derivatives were evaluated using the following human cancer cell lines: SkBr-3 (Her2+) and MDA-MB-468 (HER2−), purchased from the American Type Culture Collection (ATCC; Manassas, VA) and were routinely cultured in DMEM/F-12 medium (Catalog #10-090-CV; Corning) supplemented with 10% fetal bovine serum (FBS; Catalog #MT35011CV; Corning) and 1× Penicillin-Streptomycin (Catalog #30-002-CI; Corning) and maintained at 37° C. with 5% CO2 in a humidified environment.
(§2) Tumor cells were harvested by detachment with cell stripper. Viable cell counts were made by Trypan blue exclusion using a Countess or Countess II automated cell counter. Cell Viability Assay: All cells were harvested and seeded into 384-well white wall clear bottom plates (Catalog #3765; Corning) at a density of 875 cells/well in DMEM/F-12 medium supplemented with 10% fetal bovine serum and 1× Penicillin-Streptomycin (complete growth media). Plates were maintained at 37° C. for 4-6 hours to allow cells to adhere to the plate. The outer wells of plates contained complete growth medium only and were used for background subtraction for the cell viability assay. Working solutions of test articles were prepared at 2× final concentrations with 5-fold serial dilutions in complete growth medium. Cell treatment was performed in triplicates and maintained at 37° C. for 120-hour assay. After treatment, cell viability was determined by CellTiter-Glo 2.0 assay (Catalog #G9243; Promega; Madison, WI, USA) based on the manufacturer's instructions. CellTiter Glo reagent reacts with ATP in metabolically active cells to give a luminescent readout that is directly proportional to the number of viable cells. Briefly, plates were removed from the incubator and equilibrated to room temperature before addition of CellTiter Glo reagent. Luminescence was measured using a Tecan Spark microplate reader (Tecan; Mannedorf, Switzerland).
(§3) For Cytotoxicity assays, raw luminescence data was background subtracted with average luminescence from the outer wells containing medium only and normalized to untreated controls using Excel (Microsoft; […]). Dose-response relationships and EC50 values were determined based on non-linear regression analysis of normalized data fit to a four-parameter logistic equation using GraphPad Prism 8.0.

For experiment [2], the system named is MDA-MB-468 (HER2−). Briefly: In vitro cell viability (CellTiter-Glo) of camptothecin derivatives in MDA-MB-468. It is filed as cell-based, human. As to conditions: 120-hour assay. Here is the method: as §1, §2, §3
For orientation: In ATP-based viability assays light output follows the ATP content of the culture.

Experiment [3] relates to HER2-positive SkBr-3. Description: In vitro cell viability (CellTiter-Glo) of anti-HER2 ADCs in SkBr-3. It is filed as cell-based. As to conditions: Homo sapiens, SK-BR-3, 120 h, Table 6; 120-hour assay. The method, then:
(§4) ADCs were evaluated using the following human cancer cell lines: HER2-positive SkBr-3, HER2-positive NCI-N87, and HER2-negative MDA-MB-468, purchased from the American Type Culture Collection (ATCC; Manassas, VA) and were routinely cultured in DMEM/F-12 medium (Catalog #[…]; Corning) supplemented with 10% fetal bovine serum (FBS; Catalog #MT35011CV; Corning) and 1× Penicillin-Streptomycin (Catalog #30-002-CI; Corning) and maintained at 37° C. with 5% CO2 in a humidified environment.
(§5) Tumor cells were harvested by detachment with cell stripper. Viable cell counts were made by Trypan blue exclusion using a Countess or Countess II automated cell counter. […] After treatment, cell viability was determined by CellTiter-Glo 2.0 assay (Catalog #G9243; Promega; Madison, WI, USA) based on the manufacturer's instructions. CellTiter Glo reagent reacts with ATP in metabolically active cells to give a luminescent readout that is directly proportional to the number of viable cells. […] Luminescence was measured using a Tecan Spark microplate reader (Tecan; Mannedorf, Switzerland).
(§6) For Cytotoxicity assays, raw luminescence data was background subtracted with average luminescence from the outer wells containing medium only and normalized to untreated controls using Excel (Microsoft; Albuquerque, NM). […]

Experiment [4] concerns HER2-negative MDA-MB-468. Briefly: In vitro cell viability (CellTiter-Glo) of anti-HER2 ADCs in MDA-MB-468. Format: cell-based. The settings on record: Homo sapiens, MDA-MB-468, 120 h, 120-hour assay. Here is the method:
as §4, §5, §6

The mark [5] stands for this setting: Homo sapiens, SK-BR-3, 120 h, Table 4B.
The mark [6] stands for this setting: Homo sapiens, MDA-MB-468, 120 h, Table 4B.
[7] abbreviates: Homo sapiens, SK-BR-3, 120 h, Table 4A, derivatives as TFA salt, exatecan mesylate.
Where [8] appears, read: Homo sapiens, MDA-MB-468, 120 h, Table 4A, derivatives as TFA salt, exatecan mesylate.
Where [9] appears, read: Table 4A, derivatives as TFA salt, exatecan mesylate.

On to `CC[C@]1(O)C(=O)OCc2c1cc1n(c2=O)Cc2c-1nc1cc(F)c(C)c3c1c2[C@H](NC(=O)C1(N)CCOC1)CC3` (stereo partly drawn) [Compound L078-149], for which the EC50 (commonly the midpoint of the concentration-response curve) in experiment [1] (setting [5]) stood at 7.71 nM; in experiment [2] (setting [6]) it was 5.01 nM.

With `CC[C@@]1(O)C(=O)OCc2c1cc1n(c2=O)Cc2c-1nc1cc(F)c(C)c3c1c2[C@@H](NC(=O)CO)CC3` [Dxd, reference compound], the 50% effective concentration (EC50) in experiment [3] was 3.84 nM; in experiment [4] (Table 5) it was 2.55 nM; in experiment [4] (Table 6), 2.57 nM; in experiment [1] (setting [7]), 2.2 nM; in experiment [1] (setting [5]) it was 3.66 nM; in experiment [2] (setting [8]), 2 nM. In addition, a half-maximal effect in experiment [2] (setting [6]) (EC50) was put at 3.16 nM.

As to `CC[C@@]1(O)C(=O)OCc2c1cc1n(c2=O)Cc2c-1nc1cc(F)c(C)c3c1c2[C@@H](N)CC3` [Exatecan, exatecan, reference compound], the EC50 is 0.69 nM in experiment [1] (setting [7]), 1.1 nM in experiment [2] (setting [8]) and 1.99 nM in experiment [2] (setting [6]).

Turning to `CC[C@]1(O)C(=O)OCc2c1cc1n(c2=O)Cc2c-1nc1cc(F)c(C)c3c1c2[C@H](NC(=O)C1(N)COC1)CC3` [Compound L078-088], the concentration for a half-maximal effect (EC50) in experiment [1] (setting [5]) came out at 2.72 nM; in experiment [2] (setting [6]), 7.32 nM.

Turning to `CC[C@]1(O)C(=O)OCc2c1cc1n(c2=O)Cc2c-1nc1cc(F)c(C)c3c1c2[C@H](NC(=O)[C@@H]1CNCCO1)CC3` [Compound L078-047], the EC50 in experiment [1] (setting [7]) stood at 11 nM; in experiment [2] (setting [8]), 15.7 nM.

For the molecule `CC[C@]1(O)C(=O)OCc2c1cc1n(c2=O)Cc2c-1nc1cc(F)c(C)c3c1c2[C@H](NC(=O)[C@@H]1CCCN1)CC3` [Compound L078-066], the EC50 in experiment [1] (setting [7]) was 3 nM; in experiment [2] (setting [8]), 5.6 nM.

In experiment [2] (Table 4B), `CC[C@]1(O)C(=O)OCc2c1cc1n(c2=O)Cc2c-1nc1cc(F)c(C)c3c1c2[C@H](NC(=O)C1(N)CCOCC1)CC3` [Compound L078-150] came in with a concentration for a half-maximal effect (EC50) of 3.01 nM.

Regarding `CC[C@]1(O)C(=O)OCc2c1cc1n(c2=O)Cc2c-1nc1cc(F)c(C)c3c1c2[C@H](NC(=O)C1CNC1)CC3` [Compound L078-030], the half-maximal effective concentration (EC50) was 49.6 nM in experiment [1] (setting [7]) and 57.2 nM in experiment [2] (setting [8]).

Take `CC[C@]1(O)C(=O)OCc2c1cc1n(c2=O)Cc2c-1nc1cc(F)c(C)c3c1c2[C@H](NC(=O)[C@@H]1C[C@@H](F)CN1)CC3` [Compound L078-051]: the results for the EC50 in experiment [1] (setting [7]) and in experiment [2] (setting [8]) were 2.8 nM and 5.4 nM, respectively.

`CC[C@]1(O)C(=O)OCc2c1cc1n(c2=O)Cc2c-1nc1cc(F)c(C)c3c1c2[C@H](NC(=O)[C@H]1CCCN1)CC3` [Compound L078-065]: the EC50 in experiment [1] (setting [7]) is 3.2 nM; in experiment [2] (setting [8]), 6 nM.

With `CC[C@]1(O)C(=O)OCc2c1cc1n(c2=O)Cc2c-1nc1cc(F)c(C)c3c1c2[C@H](NC(=O)[C@H]1CCN1)CC3` [Compound L078-042], the EC50 was determined as 2.3 nM in experiment [1] (setting [7]) and 5.7 nM in experiment [2] (setting [8]).

For the molecule `CC[C@]1(O)C(=O)OCc2c1cc1n(c2=O)Cc2c-1nc1cc(F)c(C)c3c1c2[C@H](NC(=O)c1cccc(N)n1)CC3` [Compound L078-029], the EC50 in experiment [1] (setting [9]) was determined as 0.8 nM; in experiment [2] (setting [9]), 2 nM.

`CC[C@]1(O)C(=O)OCc2c1cc1n(c2=O)Cc2c-1nc1cc(F)c(C)c3c1c2[C@H](NC(=O)[C@@H]1CCN1)CC3` [Compound L078-043]: the concentration for a half-maximal effect (EC50) came out at 1.8 nM in experiment [1] (setting [7]) and 3.7 nM in experiment [2] (setting [8]).

Turning to `CC[C@]1(O)C(=O)OCc2c1cc1n(c2=O)Cc2c-1nc1cc(F)c(C)c3c1c2[C@H](NC(=O)[C@H]1COCCN1)CC3` [Compound L078-049], the concentration for a half-maximal effect (EC50) was determined as 2.3 nM in experiment [1] (setting [7]) and 4.7 nM in experiment [2] (setting [8]).

With `CC[C@]1(O)C(=O)OCc2c1cc1n(c2=O)Cc2c-1nc1cc(F)c(C)c3c1c2[C@H](NC(=O)C1CCNCC1)CC3` [Compound L078-081], the half-maximal effective concentration (EC50) came out at 163 nM in experiment [1] (setting [9]) and 81.4 nM in experiment [2] (setting [9]).

`CC[C@]1(O)C(=O)OCc2c1cc1n(c2=O)Cc2c-1nc1cc(F)c(C)c3c1c2[C@H](NC(=O)[C@H]1CNCCO1)CC3` [Compound L078-046]: the concentration for a half-maximal effect (EC50) came out at 5.5 nM in experiment [1] (setting [7]) and 5.7 nM in experiment [2] (setting [8]).

With `CC[C@]1(O)C(=O)OCc2c1cc1n(c2=O)Cc2c-1nc1cc(F)c(C)c3c1c2[C@H](NC(=O)[C@@H]1COCCN1)CC3` [Compound L078-048], the concentration giving a half-maximal response (EC50) was 5.6 nM in experiment [1] (setting [7]) and 5.7 nM in experiment [2] (setting [8]).
